This note sets out measurements from patent publication US20100029657A1, “Bridged, Bicyclic Heterocyclic or Spiro Bicyclic Heterocyclic Derivatives of Pyrazolo[1, 5-A]Pyrimidines, Methods for Preparation and Uses Thereof” (Wyeth, priority 2008, published 2010).

Structures are written as SMILES. pIC50: −log10 of the molar value.

The target of the assay is T1, Flag/GST-tagged recombinant human B-Raf (Homo sapiens, UniProt P15056).
T1 construct: Flag; GST; made in house; host or cells: Sf9 insect cells (B-Raf); E. coli (MEK1-GST)
T1 sequence (P15056 whole entry): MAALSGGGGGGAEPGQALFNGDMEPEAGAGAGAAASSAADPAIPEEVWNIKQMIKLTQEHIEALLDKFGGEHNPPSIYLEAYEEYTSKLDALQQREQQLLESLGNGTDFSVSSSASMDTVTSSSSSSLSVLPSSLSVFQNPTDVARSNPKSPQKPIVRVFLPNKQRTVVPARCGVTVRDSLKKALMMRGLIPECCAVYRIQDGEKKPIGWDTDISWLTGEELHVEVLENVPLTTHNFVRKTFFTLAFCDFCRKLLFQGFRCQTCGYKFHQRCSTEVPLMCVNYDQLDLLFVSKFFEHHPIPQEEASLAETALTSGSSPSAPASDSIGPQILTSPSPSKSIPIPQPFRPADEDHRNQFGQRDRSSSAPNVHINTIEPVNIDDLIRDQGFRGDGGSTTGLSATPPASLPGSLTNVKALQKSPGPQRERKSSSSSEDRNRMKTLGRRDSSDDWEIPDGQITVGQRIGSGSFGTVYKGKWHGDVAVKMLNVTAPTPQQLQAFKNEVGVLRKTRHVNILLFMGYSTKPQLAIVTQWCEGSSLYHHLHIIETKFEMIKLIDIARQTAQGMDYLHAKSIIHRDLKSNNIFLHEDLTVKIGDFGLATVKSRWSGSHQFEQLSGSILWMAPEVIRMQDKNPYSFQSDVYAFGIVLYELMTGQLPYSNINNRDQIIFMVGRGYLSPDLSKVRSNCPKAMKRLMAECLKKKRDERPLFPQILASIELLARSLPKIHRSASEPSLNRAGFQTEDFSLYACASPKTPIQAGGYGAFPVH
The assay can be described thus: B-Raf kinase assay (phosphorylation of GST-MEK1, phospho-MEK1 antibody/Europium detection). It counts as biochemical. The conditions noted are these: B-Raf IC50 Data for compounds of Formula A; read-out: Mean IC50. The method in brief:
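Active B-Raf (0.2 nM) phosphorylates GST-MEK1 in 20 mM MOPS pH 7.2 buffer with DTT, vanadate and 0.01% Triton X-100. The Mg/ATP cocktail (200 μM ATP, 40 mM MgCl2) is added, then incubation runs 45 min at RT. Product is captured on anti-GST plates and detected by anti-phospho-MEK1 plus Europium-anti-rabbit fluorescence, giving % inhibition per concentration.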

A word on the pIC50: it is the IC50 on a negative log10 scale, so that one unit is a factor of ten. As to `CN1C2CCC1CN(c1ccc(-c3ccnc4c(-c5cccc6[nH]ncc56)c(-c5ccncc5)nn34)cn1)C2` [Example 140, 3-(1H-indazol-4-yl)-7-[6-(8-methyl-3,8-diazabicyclo[3.2.1]oct-3-yl)pyridin-3-yl]-2-pyridin-4-ylpyrazolo[1,5-a]pyrimidine], the pIC50 is 8.92.

As for `CN1C[C@@H]2C[C@H]1CN2c1ccc(-c2ccnc3c(-c4ccc(Cl)c5[nH]ncc45)c(-c4ccncc4)nn23)cc1` [Example 141, 3-(7-chloro-1H-indazol-4-yl)-7-{4-[(1S,4S)-5-methyl-2,5-diazabicyclo[2.2.1]hept-2-yl]phenyl}-2-pyridin-4-ylpyrazolo[1,5-a]pyrimidine], the negative-log IC50 (pIC50) is 8.64.

Turning to `c1cc(-c2c(-c3ccncc3)nn3c(C4CCC5(CC4)OCCO5)ccnc23)c2cn[nH]c2c1` [Example 142, 7-(1,4-dioxaspiro[4.5]dec-8-yl)-3-(1H-indazol-4-yl)-2-pyridin-4-ylpyrazolo[1,5-a]pyrimidine], the pIC50 is 8.66.

Turning to `CN1C[C@@H]2CC[C@H]1CN2c1ccc(-c2ccnc3c(-c4cccc5[nH]ncc45)c(-c4ccncc4)nn23)cc1` [Example 143, 3-(1H-indazol-4-yl)-7-{4-[(1S,4S)-5-methyl-2,5-diazabicyclo[2.2.2]oct-2-yl]phenyl}-2-pyridin-4-ylpyrazolo[1,5-a]pyrimidine], the negative logarithm of the IC50 (pIC50) was 9.15.

`c1cc(-c2c(-c3ccncc3)nn3c(-c4ccc(N5C[C@@H]6CC[C@H]5CN6)cc4)ccnc23)c2cn[nH]c2c1` [Example 144, 7-{4-[(1S,4S)-2,5-diazabicyclo[2.2.2]oct-2-yl]phenyl}-3-(1H-indazol-4-yl)-2-pyridin-4-ylpyrazolo[1,5-a]pyrimidine]: the pIC50 was 9.22.

As for `Fc1cc(F)c(-c2ccnc3c(-c4cccc5[nH]ncc45)c(-c4ccncc4)nn23)c(N2C[C@@H]3C[C@H]2CN3)c1` [Example 145, 7-{2-[(1S,4S)-2,5-diazabicyclo[2.2.1]hept-2-yl]-4,6-difluorophenyl}-3-(1H-indazol-4-yl)-2-pyridin-4-ylpyrazolo[1,5-a]pyrimidine], the negative logarithm of the IC50 (pIC50) is 7.13.

For `CN(C)c1cc(N2C[C@@H]3C[C@H]2CN3)ccc1-c1ccnc2c(-c3cccc4[nH]ncc34)c(-c3ccncc3)nn12` [Example 146, 5-[(1S,4S)-2,5-diazabicyclo[2.2.1]hept-2-yl]-2-[3-(1H-indazol-4-yl)-2-pyridin-4-ylpyrazolo[1,5-a]pyrimidin-7-yl]-N,N-dimethylaniline], the pIC50 was 8.20.

`CN1C[C@@H]2C[C@H]1CN2c1cc(F)cc(F)c1-c1ccnc2c(-c3cccc4[nH]ncc34)c(-c3ccncc3)nn12` [Example 147, 7-{2,4-difluoro-6-[(1S,4S)-5-methyl-2,5-diazabicyclo[2.2.1]hept-2-yl]phenyl}-3-(1H-indazol-4-yl)-2-pyridin-4-ylpyrazolo[1,5-a]pyrimidine]: the negative-log IC50 (pIC50) is below 7.00.

As to `CN(C)c1cc(N2C[C@@H]3C[C@H]2CN3C)ccc1-c1ccnc2c(-c3cccc4[nH]ncc34)c(-c3ccncc3)nn12` [Example 148, 2-[3-(1H-indazol-4-yl)-2-pyridin-4-ylpyrazolo[1,5-a]pyrimidin-7-yl]-N,N-dimethyl-5-[(1S,4S)-5-methyl-2,5-diazabicyclo[2.2.1]hept-2-yl]aniline], the pIC50 was 8.14.

In the case of `c1cc(-c2c(-c3ccncc3)nn3c2nccc3[C@H]2CC[C@@H](N3C[C@@H]4C[C@H]3CN4)CC2)c2cn[nH]c2c1` [Example 149, 7-{cis-4-[(1S,4S)-2,5-diazabicyclo[2.2.1]hept-2-yl]cyclohexyl}-3-(1H-indazol-4-yl)-2-pyridin-4-ylpyrazolo[1,5-a]pyrimidine], the negative-log IC50 (pIC50) is 8.49.

For the compound `c1cc(-c2c(-c3ccncc3)nn3c2nccc3[C@H]2CC[C@@H](N3C[C@@H]4C[C@H]3CO4)CC2)c2cn[nH]c2c1` [Example 154, 3-(1H-indazol-4-yl)-7-{cis-4-[(1S,4S)-2-oxa-5-azabicyclo[2.2.1]hept-5-yl]cyclohexyl}-2-pyridin-4-ylpyrazolo[1,5-a]pyrimidine], the negative logarithm of the IC50 (pIC50) is 7.94.

Regarding `c1cc(-c2c(-c3ccncc3)nn3c2nccc3[C@H]2CC[C@H](N3C[C@@H]4C[C@H]3CO4)CC2)c2cn[nH]c2c1` [Example 155, 3-(1H-indazol-4-yl)-7-{trans-4-[(1S,4S)-2-oxa-5-azabicyclo[2.2.1]hept-5-yl]cyclohexyl}-2-pyridin-4-ylpyrazolo[1,5-a]pyrimidine], the negative-log IC50 (pIC50) is 8.46.

Take `c1cc(-c2c(-c3ccncc3)nn3c2nccc3[C@H]2CC[C@H](N3C[C@@H]4C[C@H]3CN4)CC2)c2cn[nH]c2c1` [Example 156, 7-{trans-4-[(1S,4S)-2,5-diazabicyclo[2.2.1]hept-2-yl]cyclohexyl}-3-(1H-indazol-4-yl)-2-pyridin-4-ylpyrazolo[1,5-a]pyrimidine]: the negative logarithm of the IC50 (pIC50) was 9.22.

For `FC(F)(F)c1cc(-c2ccnc3c(-c4cccc5[nH]ncc45)c(-c4ccncc4)nn23)ccc1N1C[C@@H]2C[C@H]1CN2` [Example 157, 7-{4-[(1S,4S)-2,5-diazabicyclo[2.2.1]hept-2-yl]-3-(trifluoromethyl)phenyl}-3-(1H-indazol-4-yl)-2-pyridin-4-ylpyrazolo[1,5-a]pyrimidine], the pIC50 was 8.92.

Turning to `c1cc(-c2c(-c3ccncc3)nn3c(-c4ccc(N5C[C@@H]6C[C@H]5CN6)c5ccccc45)ccnc23)c2cn[nH]c2c1` [Example 158, 7-{4-[(1S,4S)-2,5-diazabicyclo[2.2.1]hept-2-yl]-1-naphthyl}-3-(1H-indazol-4-yl)-2-pyridin-4-ylpyrazolo[1,5-a]pyrimidine], the pIC50 was 7.68.

Regarding `CN1C[C@@H]2C[C@H]1CN2c1ccc(-c2ccnc3c(-c4cccc5[nH]ncc45)c(-c4ccncc4)nn23)cc1C(F)(F)F` [Example 159, 3-(1H-indazol-4-yl)-7-{4-[(1S,4S)-5-methyl-2,5-diazabicyclo[2.2.1]hept-2-yl]-3-(trifluoromethyl)phenyl}-2-pyridin-4-ylpyrazolo[1,5-a]pyrimidine], the pIC50 was 8.70.

For the compound `CN1C[C@@H]2C[C@H]1CN2c1ccc(-c2ccnc3c(-c4cccc5[nH]ncc45)c(-c4ccncc4)nn23)c2ccccc12` [Example 160, 3-(1H-indazol-4-yl)-7-{4-[(1S,4S)-5-methyl-2,5-diazabicyclo[2.2.1]hept-2-yl]-1-naphthyl}-2-pyridin-4-ylpyrazolo[1,5-a]pyrimidine], the pIC50 was 7.60.

Regarding `Fc1cc(-c2ccnc3c(-c4cccc5[nH]ncc45)c(-c4ccncc4)nn23)cc(F)c1N1C[C@@H]2C[C@H]1CN2` [Example 161, 7-{4-[(1S,4S)-2,5-diazabicyclo[2.2.1]hept-2-yl]-3,5-difluorophenyl}-3-(1H-indazol-4-yl)-2-pyridin-4-ylpyrazolo[1,5-a]pyrimidine], the negative-log IC50 (pIC50) is 8.57.

On to `Fc1c(-c2ccnc3c(-c4cccc5[nH]ncc45)c(-c4ccncc4)nn23)ccc(N2C[C@@H]3C[C@H]2CN3)c1F` [Example 162, 7-{4-[(1S,4S)-2,5-diazabicyclo[2.2.1]hept-2-yl]-2,3-difluorophenyl}-3-(1H-indazol-4-yl)-2-pyridin-4-ylpyrazolo[1,5-a]pyrimidine], for which the pIC50 was 9.30.

Consider `Fc1cc(N2C[C@@H]3C[C@H]2CN3)c(F)cc1-c1ccnc2c(-c3cccc4[nH]ncc34)c(-c3ccncc3)nn12` [Example 163, 7-{4-[(1S,4S)-2,5-diazabicyclo[2.2.1]hept-2-yl]-2,5-difluorophenyl}-3-(1H-indazol-4-yl)-2-pyridin-4-ylpyrazolo[1,5-a]pyrimidine], for which the pIC50 was above 9.52.
